# Values quoted from earlier work in patent publication US20140348954A1, “PRODUCT COMPRISING GLUCOMANNAN AND CHITOSAN FOR THE TREATMENT OF GASTROESOPHAGEAL REFLUX DISEASE” (DICOFARM S.P.A., priority 2012, published 2014).
# Target: transient receptor potential cation channel subfamily V member 1 (TrpV1) (Homo sapiens, UniProt Q8NER1)
# Settings: inflamed human esophagus due to GERD
# Sequence of transient receptor potential cation channel subfamily V member 1 (TrpV1) (Q8NER1 whole entry): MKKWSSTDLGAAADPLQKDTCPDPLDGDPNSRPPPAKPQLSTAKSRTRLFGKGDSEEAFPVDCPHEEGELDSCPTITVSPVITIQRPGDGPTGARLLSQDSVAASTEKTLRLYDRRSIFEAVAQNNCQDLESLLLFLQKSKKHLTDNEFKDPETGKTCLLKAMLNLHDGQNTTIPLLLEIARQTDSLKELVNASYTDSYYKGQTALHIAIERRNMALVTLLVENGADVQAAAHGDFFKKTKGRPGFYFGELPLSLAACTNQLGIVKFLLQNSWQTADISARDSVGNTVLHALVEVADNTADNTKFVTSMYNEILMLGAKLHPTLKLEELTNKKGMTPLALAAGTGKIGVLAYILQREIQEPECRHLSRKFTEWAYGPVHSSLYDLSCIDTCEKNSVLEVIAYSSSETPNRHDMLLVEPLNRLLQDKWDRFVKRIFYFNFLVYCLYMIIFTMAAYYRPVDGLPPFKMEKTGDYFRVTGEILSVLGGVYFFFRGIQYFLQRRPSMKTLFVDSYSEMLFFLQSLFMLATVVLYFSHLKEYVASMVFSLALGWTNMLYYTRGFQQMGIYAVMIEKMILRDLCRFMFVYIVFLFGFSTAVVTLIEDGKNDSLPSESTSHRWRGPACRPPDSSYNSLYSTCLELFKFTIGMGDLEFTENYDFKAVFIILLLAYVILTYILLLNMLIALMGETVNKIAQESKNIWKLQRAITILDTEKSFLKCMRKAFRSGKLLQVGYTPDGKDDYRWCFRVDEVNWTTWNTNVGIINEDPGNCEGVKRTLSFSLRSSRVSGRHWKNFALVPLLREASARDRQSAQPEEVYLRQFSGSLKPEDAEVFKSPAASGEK
smiles,measurement,value
COc1cc(/C=C/C(=O)CC(=O)/C=C/c2ccc(O)c(OC)c2)ccc1O [curcumin],action on TrpV1,typical activator
